Test results published in PubChem BioAssay AID2060599 (Molecular Pharmacology Branch, DTP, NCI, 2025).
Values joined by “and” are separate entries in the source; they are usually repeats but may differ in a detail not shown here. Equal entries are not always repeated.

Tested on: 817829-284-R-J1-PDC complex spheroids, viability
Assay: Anticancer human tumor 817829-284-R-J1-PDC patient-derived colon adenocarcinoma cell line growth inhibition [CLK]
Conditions: for viability, T/C: stronger effect = lower value
From the text: A high-throughput screen of multi-cell type tumor spheroids was designed to identify active combinations of […] and targeted small molecules. Complex spheroids include a stromal component modeled by human endothelial cells (HUVEC) and fibroblasts modeled by human mesenchymal stem cells (MSCs). The concentration ranges selected for each drug and investigational agent were based upon clinically achievable concentrations if the clinical Cmax of the agent was known.
Compounds. The drugs and investigational agents: cirtuvivint (SM08502; NSC835563), CC-671 (NSC850746), vemurafenib (NSC761431), tapotoclax (NSC804041), sotorasib (NSC818433), adagrasib (NSC831453), MRTX-1133 (NSC836407), BAY2416964 (NSC825713), copanlisib (NSC816437), inavolisib (NSC800729), abemaciclib (NSC768073), osimertinib (NSC779217), entinostat (NSC756642), eltanexor (KPT-8602, NSC794443), venetoclax (NSC766270), ceralasertib (NSC777638), bortezomib (NSC756655), olaparib (NSC753686), talazoparib (NSC767125), alisertib (NSC759677), peposertib (NSC802822), gemcitabine (NSC613327), 5-fluorouracil (NSC19893), SN-38 (NSC673596), oxaliplatin (NSC266046), paclitaxel (NSC125973), and doxorubicin (NSC123127), were obtained from the National Cancer Institute (NCI) Developmental Therapeutics Program Chemical Repository. The FDA-approved anticancer drug set is available from the Developmental Therapeutics Program at https://dtp.cancer.gov/organization/dscb/obtaining/available plates.htm. […] The stock solutions were prepared in dimethyl sulfoxide (DMSO, Sigma-Aldrich, St. Louis, MO, cat. D2650), except for the platinum complexes which were prepared in saline (Quality Biological, Gaithersburg, MD, cat. 114-055-101), at 800-fold the tested concentration and stored at -70 degrees C prior to their use. All drugs and investigational agents were tested over a range starting from a high concentration at or near the clinical Cmax and decreasing in half-log increments. If the clinical Cmax for an agent had not been determined, the highest concentration tested was 10 microM.
Cell Culture. All cells were maintained in an incubator at 37 degrees C and 5% CO2 with 95% humidity. The PDC lines were cultured according to standard operating procedures established by the NCI PDMR. Briefly, all PDCs were thawed and cultured in Matrigel-coated flasks prepared with a working solution of 1X Ham's F-12 nutrient mix, without supplementation (Invitrogen, Waltham, MA, cat. 11765054), 100 U/mL penicillin-streptomycin (Invitrogen, cat. 15140122), and 2.5% Matrigel (Corning Inc., Corning, NY, cat. 354248) for the first three passages. The 947758-054-R-J2-PDC line was cultured in 6B/Colon 1A media, which includes advanced DMEM/F-12 (Thermo Fisher Scientific, cat. 12634028), 10 mM HEPES (Thermo Fisher Scientific, cat. 15630080), 1X GlutaMAX supplement (Thermo Fisher Scientific, cat. 35050061), 0.1 mg/mL primocin (InvivoGen, cat. ant-pm-2), 10% defined fetal bovine serum, heat inactivated (HyClone Laboratories Inc., cat. SH30070.03HI), 1.25 mM N-Acetyl-L-cysteine (Sigma-Aldrich, cat. A9165), 10 mM nicotinamide (Sigma-Aldrich, cat. N0636), 1X B-27 supplement (Thermo Fisher Scientific, cat. 17504044), 1X N-2 supplement (Thermo Fisher Scientific, cat. 17502048), and 10 microM Y-27632 dihydrochloride (Tocris Bioscience, cat. 1254). The 876862-298-R-J1-PDC was cultured in 6E media, which includes all 6B/Colon 1A media components plus 50% L-WRN conditioned media (ATCC, cat. CRL-3276), 50 ng/mL recombinant human EGF recombinant protein (hEGF; Thermo Fisher Scientific, cat. PHG0311), 10 ng/mL recombinant human fibroblast growth factor 10 (hGFG-10; PeproTech, cat. 100-26), 1 ng/mL recombinant human fibroblast growth factor 2 (hFGF-2; PeproTech, cat. 100-18B), and 1 µM prostaglandin E2 (PGE2; Tocris, cat. 2296). The 227483-062-R1-J1-PDC line was cultured in Panc media, containing all 6E components except hFGF-2, with the addition of 500 nM SB-431542 (Selleckchem, cat. S1067) and 10 nM gastrin (Tocris, cat. 3006). […]

[1] = curve of first compound, second compound 0.0316 µM
[2] = curve of first compound, second compound 0.1 µM
[3] = curve of first compound, second compound 0.316 µM
[4] = curve of first compound, second compound 1 µM
[5] = curve of first compound, second compound 3.16 µM
[6] = curve of first compound, second compound 10 µM
[7] = second compound 0.0316 µM, first compound 0.0316 µM
[8] = second compound 0.0316 µM, first compound 0.1 µM
[9] = second compound 0.0316 µM, first compound 0.316 µM
[10] = second compound 0.0316 µM, first compound 1 µM
[11] = second compound 0.1 µM, first compound 0.0316 µM
[12] = second compound 0.1 µM, first compound 0.1 µM
[13] = second compound 0.1 µM, first compound 0.316 µM
[14] = second compound 0.1 µM, first compound 1 µM
[15] = second compound 0.316 µM, first compound 0.0316 µM
[16] = second compound 0.316 µM, first compound 0.1 µM
[17] = second compound 0.316 µM, first compound 0.316 µM
[18] = second compound 0.316 µM, first compound 1 µM
[19] = second compound 1 µM, first compound 0.0316 µM
[20] = second compound 1 µM, first compound 0.1 µM
[21] = second compound 1 µM, first compound 0.316 µM
[22] = second compound 1 µM, first compound 1 µM
[23] = second compound 3.16 µM, first compound 0.0316 µM
[24] = second compound 3.16 µM, first compound 0.1 µM
[25] = second compound 3.16 µM, first compound 0.316 µM
[26] = second compound 3.16 µM, first compound 1 µM
[27] = second compound 10 µM, first compound 0.0316 µM
[28] = second compound 10 µM, first compound 0.1 µM
[29] = second compound 10 µM, first compound 0.316 µM
[30] = second compound 10 µM, first compound 1 µM
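Further: spheroids exposed to the agents for seven days before readout.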

COc1cccc2c1C(=O)c1c(O)c3c(c(O)c1C2=O)CC(O)(C(=O)CO)CC3OC1CC(N)C(O)C(C)O1 (stereo not drawn) showed a viability, T/C (compound 0.0316 µM) of 20.5%, a viability, T/C (compound 0.1 µM) of 16.4% and a viability, T/C (compound 0.316 µM) of 4.21%. The viability, T/C (compound 1 µM) was 0.22%, the viability, T/C (compound 3.16 µM) was 0.3% and the viability, T/C (compound 10 µM) was 0.85%. For the same compound, the IC50 (curve of compound) was less than 31.6 nM.
Compound CC1(C)CCC(CN2CCN(c3ccc(C(=O)NS(=O)(=O)c4ccc(NCC5CCOCC5)c([N+](=O)[O-])c4)c(Oc4cnc5[nH]ccc5c4)c3)CC2)=C(c2ccc(Cl)cc2)C1 + CN1CCN(c2cc(C(=O)Nc3cc4cc(-c5cnn(C)c5)ccc4cn3)ccn2)CC1 has an IC50 [1] of 4030 nM, an IC50 [2] of less than 31.6 nM and an IC50 [3] of less than 31.6 nM. The IC50 [4] was less than 31.6 nM, the IC50 [5] was less than 31.6 nM and the IC50 [6] was less than 31.6 nM. It also gave a viability, T/C [7] of 92.8%, a viability, T/C [8] of 64.9% and a viability, T/C [9] of 46.8%. The viability, T/C [10] was 80.8%, the viability, T/C (second compound 0.0316 µM, first compound 3.16 µM) was 63.2% and the viability, T/C (second compound 0.0316 µM, first compound 10 µM) was 1.02%. The viability, T/C [11] was 18%, the viability, T/C [12] was 19.6% and the viability, T/C [13] was 16.1%. The viability, T/C [14] was 18.4%, the viability, T/C (second compound 0.1 µM, first compound 3.16 µM) was 20% and the viability, T/C (second compound 0.1 µM, first compound 10 µM) was 0.96%. It also gave a viability, T/C [15] of 1.84%, a viability, T/C [16] of 1.97% and a viability, T/C [17] of 1.65%. It also gave a viability, T/C [18] of 2.48%, a viability, T/C (second compound 0.316 µM, first compound 3.16 µM) of 1.41% and a viability, T/C (second compound 0.316 µM, first compound 10 µM) of 0.06%. For the same compound, the viability, T/C [19] was 0.11%, the viability, T/C [20] was 0.09% and the viability, T/C [21] was 0.08%. The viability, T/C [22] was 0.09%, the viability, T/C (second compound 1 µM, first compound 3.16 µM) was 0.09% and the viability, T/C (second compound 1 µM, first compound 10 µM) was 0.06%. It also gave a viability, T/C [23] of 0.12%, a viability, T/C [24] of 0.12% and a viability, T/C [25] of 0.12%. It also gave a viability, T/C [26] of 0.11%, a viability, T/C (second compound 3.16 µM, first compound 3.16 µM) of 0.13% and a viability, T/C (second compound 3.16 µM, first compound 10 µM) of 0.07%. The viability, T/C [27] was 0.06%, the viability, T/C [28] was 0.07% and the viability, T/C [29] was 0.09%. It also gave a viability, T/C [30] of 0.09%, a viability, T/C (second compound 10 µM, first compound 3.16 µM) of 0.17% and a viability, T/C (second compound 10 µM, first compound 10 µM) of 0.1%.
Compound CCc1c2c(nc3ccc(O)cc13)-c1cc3c(c(=O)n1C2)COC(=O)[C@]3(O)CC + CNC(=O)c1ccc(Nc2nc(OC3CCCC3)c3c(-c4ccc5nc(C)oc5c4)c[nH]c3n2)c(OC)c1 has an IC50 [1] of less than 3.16 nM, an IC50 [2] of less than 3.16 nM and an IC50 [3] of less than 3.16 nM. The IC50 [4] was less than 3.16 nM, the IC50 [5] was less than 3.16 nM and the IC50 [6] was less than 3.16 nM. The viability, T/C (second compound 0.0316 µM, first compound 0.00316 µM) was 18.9%, the viability, T/C (second compound 0.0316 µM, first compound 0.01 µM) was 16.6% and the viability, T/C [7] was 13.2%. The viability, T/C [8] was 9.4%, the viability, T/C [9] was 6.53% and the viability, T/C [10] was 4.13%. The viability, T/C (second compound 0.1 µM, first compound 0.00316 µM) was 21.3%, the viability, T/C (second compound 0.1 µM, first compound 0.01 µM) was 17.2% and the viability, T/C [11] was 13.2%. It also gave a viability, T/C [12] of 9.71%, a viability, T/C [13] of 7.28% and a viability, T/C [14] of 4.24%. For the same compound, the viability, T/C (second compound 0.316 µM, first compound 0.00316 µM) was 17.3%, the viability, T/C (second compound 0.316 µM, first compound 0.01 µM) was 17% and the viability, T/C [15] was 13%. It also gave a viability, T/C [16] of 7.86%, a viability, T/C [17] of 5.8% and a viability, T/C [18] of 3.35%. For the same compound, the viability, T/C (second compound 1 µM, first compound 0.00316 µM) was 15.2%, the viability, T/C (second compound 1 µM, first compound 0.01 µM) was 12.4% and the viability, T/C [19] was 7.9%. The viability, T/C [20] was 5.92%, the viability, T/C [21] was 4.02% and the viability, T/C [22] was 2.78%. It also gave a viability, T/C (second compound 3.16 µM, first compound 0.00316 µM) of 13.2%, a viability, T/C (second compound 3.16 µM, first compound 0.01 µM) of 9.13% and a viability, T/C [23] of 6.71%. It also gave a viability, T/C [24] of 6.34%, a viability, T/C [25] of 4.45% and a viability, T/C [26] of 2.73%. It also gave a viability, T/C (second compound 10 µM, first compound 0.00316 µM) of 11.9%, a viability, T/C (second compound 10 µM, first compound 0.01 µM) of 8.01% and a viability, T/C [27] of 7.69%. It also gave a viability, T/C [28] of 4.85%, a viability, T/C [29] of 4.44% and a viability, T/C [30] of 2.57%.
For C#Cc1c(F)ccc2cc(O)cc(-c3ncc4c(N5CC6CCC(C5)N6)nc(OCC56CCCN5CC(F)C6)nc4c3F)c12 (stereo not drawn), the viability, T/C (compound 0.0316 µM) was 126% and 105%, the viability, T/C (compound 0.1 µM) was 74% and 131% and the viability, T/C (compound 0.316 µM) was 116% and 80.9%. The viability, T/C (compound 1 µM) was 81.9% and 122%, the viability, T/C (compound 3.16 µM) was 60% and 100% and the viability, T/C (compound 10 µM) was 62.3% and 79.4%. The IC50 (curve of compound) was greater than 10000 nM.
